Source: PubChem BioAssay (NCI)
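Cells were grown in 96-well plates and exposed to each compound for 48 hours at five concentrations; endpoints were interpolated linearly between bracketing concentrations, or set to the highest concentration if not reached. The concentration for full growth arrest is given as TGI.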

Experiments:
Test in all cases: growth of human tumour cells (NCI), 48 h
SK-MEL-28 melanoma = system: SK-MEL-28 melanoma
HL-60(TB) leukemia = system: HL-60(TB) leukemia
SN12C renal = system: SN12C renal
OVCAR-8 ovarian = system: OVCAR-8 ovarian
MDA-MB-435 = system: MDA-MB-435
NCI-H23 lung = system: NCI-H23 lung
IGROV1 ovarian = system: IGROV1 ovarian
HCT-15 colon = system: HCT-15 colon
SR leukemia = system: SR leukemia
KM12 colon = system: KM12 colon
HCT-116 colon = system: HCT-116 colon
SF-268 CNS = system: SF-268 CNS
SNB-75 CNS = system: SNB-75 CNS
SNB-19 CNS = system: SNB-19 CNS
OVCAR-3 ovarian = system: OVCAR-3 ovarian
HS 578T breast = system: HS 578T breast
UO-31 renal = system: UO-31 renal
RPMI-8226 leukemia = system: RPMI-8226 leukemia
U251 CNS = system: U251 CNS
HCC-2998 colon = system: HCC-2998 colon
A498 renal = system: A498 renal
NCI/ADR-RES ovarian = system: NCI/ADR-RES ovarian
LOX IMVI melanoma = system: LOX IMVI melanoma
OVCAR-5 ovarian = system: OVCAR-5 ovarian
MOLT-4 leukemia = system: MOLT-4 leukemia
SF-295 CNS = system: SF-295 CNS
SK-MEL-2 melanoma = system: SK-MEL-2 melanoma
HOP-62 NSCLC = system: HOP-62 NSCLC
OVCAR-4 ovarian = system: OVCAR-4 ovarian
COLO 205 colon = system: COLO 205 colon
MDA-MB-231 breast = system: MDA-MB-231 breast
SF-539 CNS = system: SF-539 CNS
SW-620 colon = system: SW-620 colon
ACHN renal = system: ACHN renal
MALME-3M melanoma = system: MALME-3M melanoma
SK-MEL-5 melanoma = system: SK-MEL-5 melanoma
CAKI-1 renal = system: CAKI-1 renal
MCF7 breast = system: MCF7 breast
HOP-92 NSCLC = system: HOP-92 NSCLC
TK-10 renal = system: TK-10 renal
UACC-62 melanoma = system: UACC-62 melanoma
DU-145 prostate = system: DU-145 prostate
NCI-H226 lung = system: NCI-H226 lung
A549 NSCLC = system: A549 NSCLC
HT29 colon = system: HT29 colon
SK-OV-3 ovarian = system: SK-OV-3 ovarian
UACC-257 melanoma = system: UACC-257 melanoma
RXF 393 renal = system: RXF 393 renal
BT-549 breast = system: BT-549 breast
786-0 renal = system: 786-0 renal
MDA-N = system: MDA-N
NCI-H460 lung = system: NCI-H460 lung
T-47D breast = system: T-47D breast
K-562 leukemia = system: K-562 leukemia
M14 melanoma = system: M14 melanoma
PC-3 prostate = system: PC-3 prostate
NCI-H522 lung = system: NCI-H522 lung
CCRF-CEM leukemia = system: CCRF-CEM leukemia
EKVX NSCLC = system: EKVX NSCLC
SNB-78 CNS = system: SNB-78 CNS
M19-MEL melanoma = system: M19-MEL melanoma
KM20L2 colon = system: KM20L2 colon
LXFL 529 NSCLC = system: LXFL 529 NSCLC
DLD-1 colon = system: DLD-1 colon
DMS 273 small cell lung = system: DMS 273 small cell lung
XF 498 CNS = system: XF 498 CNS

SMILES: CN(C)CCOC1(CC2CCCCC2)CCC(C(C)(C)C)CC1 (stereo not given)
- TGI (SK-MEL-28 melanoma): 12.3 µM
- TGI (HL-60(TB) leukemia): 7.35 µM
- TGI (SN12C renal): 20.6 µM
- TGI (OVCAR-8 ovarian): 19.3 µM
- TGI (MDA-MB-435): 13.8 µM
- TGI (NCI-H23 lung): 21.8 µM
- TGI (IGROV1 ovarian): 22.2 µM
- TGI (HCT-15 colon): 13.4 µM
- TGI (SR leukemia): 4.57 µM
- TGI (KM12 colon): 14.4 µM
- TGI (HCT-116 colon): 14.7 µM
- TGI (SF-268 CNS): 25.4 µM
- TGI (SNB-75 CNS): 19.1 µM
- TGI (SNB-19 CNS): 21.9 µM
- TGI (OVCAR-3 ovarian): 18.4 µM
- TGI (HS 578T breast): 23.4 µM
- TGI (UO-31 renal): 15.6 µM
- TGI (RPMI-8226 leukemia): 4.9 µM
- TGI (U251 CNS): 13.2 µM
- TGI (HCC-2998 colon): 11.7 µM
- TGI (A498 renal): 12.9 µM
- TGI (NCI/ADR-RES ovarian): 23.8 µM
- TGI (LOX IMVI melanoma): 6.79 µM
- TGI (OVCAR-5 ovarian): 17.5 µM
- TGI (MOLT-4 leukemia): 7.67 µM
- TGI (SF-295 CNS): 12 µM
- TGI (SK-MEL-2 melanoma): 13.7 µM
- TGI (HOP-62 NSCLC): 11.2 µM
- TGI (OVCAR-4 ovarian): 19.8 µM
- TGI (COLO 205 colon): 6.13 µM
- TGI (MDA-MB-231 breast): 13.5 µM
- TGI (SF-539 CNS): 10.6 µM
- TGI (SW-620 colon): 12.7 µM
- TGI (ACHN renal): 20 µM
- TGI (MALME-3M melanoma): 6.65 µM
- TGI (SK-MEL-5 melanoma): 4.8 µM
- TGI (CAKI-1 renal): 19.1 µM
- TGI (MCF7 breast): 7.73 µM
- TGI (HOP-92 NSCLC): 17.5 µM
- TGI (TK-10 renal): 25.5 µM
- TGI (UACC-62 melanoma): 20.3 µM
- TGI (DU-145 prostate): 19.6 µM
- TGI (NCI-H226 lung): 21.2 µM
- TGI (A549 NSCLC): 17.6 µM
- TGI (HT29 colon): 7.02 µM
- TGI (SK-OV-3 ovarian): 24.7 µM
- TGI (UACC-257 melanoma): 11.8 µM
- TGI (RXF 393 renal): 8.96 µM
- TGI (BT-549 breast): 20.4 µM
- TGI (786-0 renal): 5.91 µM
- TGI (MDA-N): 13.1 µM
- TGI (NCI-H460 lung): 9.65 µM
- TGI (T-47D breast): 13.6 µM
- TGI (K-562 leukemia): 5.93 µM
- TGI (M14 melanoma): 4.61 µM
- TGI (PC-3 prostate): 13.2 µM
- TGI (NCI-H522 lung): 8.49 µM
- TGI (CCRF-CEM leukemia): 7.62 µM
- TGI (EKVX NSCLC): 22 µM

SMILES: CC(=O)NC1=C(NCc2ccc(Cl)cc2)C(=O)c2ccccc2C1=O
- TGI (SK-MEL-28 melanoma): 11.5 µM
- TGI (HL-60(TB) leukemia): 3.22 µM
- TGI (SN12C renal): > 50 µM
- TGI (OVCAR-8 ovarian): 14.1 µM
- TGI (SNB-78 CNS): 24.1 µM
- TGI (NCI-H23 lung): 13.5 µM
- TGI (IGROV1 ovarian): 49.6 µM
- TGI (HCT-15 colon): 11.6 µM
- TGI (SR leukemia): 29.9 µM
- TGI (M19-MEL melanoma): 11.2 µM
- TGI (KM12 colon): > 50 µM
- TGI (HCT-116 colon): 9.35 µM
- TGI (SF-268 CNS): > 50 µM
- TGI (SNB-75 CNS): 15.2 µM
- TGI (KM20L2 colon): > 50 µM
- TGI (SNB-19 CNS): > 50 µM
- TGI (OVCAR-3 ovarian): 13.1 µM
- TGI (UO-31 renal): 11.4 µM
- TGI (U251 CNS): 24.2 µM
- TGI (HCC-2998 colon): > 50 µM
- TGI (LXFL 529 NSCLC): 13 µM
- TGI (LOX IMVI melanoma): 20.9 µM
- TGI (MOLT-4 leukemia): > 50 µM
- TGI (SF-295 CNS): 47 µM
- TGI (SK-MEL-2 melanoma): 12.2 µM
- TGI (HOP-62 NSCLC): > 50 µM
- TGI (OVCAR-4 ovarian): 13.4 µM
- TGI (COLO 205 colon): 11.4 µM
- TGI (SF-539 CNS): 10.5 µM
- TGI (SW-620 colon): 13.6 µM
- TGI (ACHN renal): 6.13 µM
- TGI (MALME-3M melanoma): 16.5 µM
- TGI (DLD-1 colon): 13.2 µM
- TGI (SK-MEL-5 melanoma): 11.4 µM
- TGI (TK-10 renal): 15.1 µM
- TGI (DMS 273 small cell lung): 14.6 µM
- TGI (XF 498 CNS): 4.74 µM
- TGI (UACC-62 melanoma): 8.61 µM
- TGI (NCI-H226 lung): 26.1 µM
- TGI (A549 NSCLC): > 50 µM
- TGI (HT29 colon): > 50 µM
- TGI (SK-OV-3 ovarian): > 50 µM
- TGI (UACC-257 melanoma): 12.4 µM
- TGI (RXF 393 renal): 10.5 µM
- TGI (786-0 renal): 15.7 µM
- TGI (NCI-H460 lung): > 50 µM
- TGI (K-562 leukemia): 16.7 µM
- TGI (M14 melanoma): 13.5 µM
- TGI (NCI-H522 lung): 3.13 µM
- TGI (CCRF-CEM leukemia): 32.3 µM
- TGI (EKVX NSCLC): 31.4 µM
